Measured values reported in US8143254B2, “Methods for modulating ion channels” (Cornell Research Foundation, Inc., priority 2005, dated 2012).

Target: T1, Kv4.2 (Homo sapiens, UniProt Q9NZV8)
T1 construct: expressed in transfected cells; host or cells: Xenopus laevis oocytes (cRNA injection, pRAT vector)
T1 sequence (Q9NZV8 1-630): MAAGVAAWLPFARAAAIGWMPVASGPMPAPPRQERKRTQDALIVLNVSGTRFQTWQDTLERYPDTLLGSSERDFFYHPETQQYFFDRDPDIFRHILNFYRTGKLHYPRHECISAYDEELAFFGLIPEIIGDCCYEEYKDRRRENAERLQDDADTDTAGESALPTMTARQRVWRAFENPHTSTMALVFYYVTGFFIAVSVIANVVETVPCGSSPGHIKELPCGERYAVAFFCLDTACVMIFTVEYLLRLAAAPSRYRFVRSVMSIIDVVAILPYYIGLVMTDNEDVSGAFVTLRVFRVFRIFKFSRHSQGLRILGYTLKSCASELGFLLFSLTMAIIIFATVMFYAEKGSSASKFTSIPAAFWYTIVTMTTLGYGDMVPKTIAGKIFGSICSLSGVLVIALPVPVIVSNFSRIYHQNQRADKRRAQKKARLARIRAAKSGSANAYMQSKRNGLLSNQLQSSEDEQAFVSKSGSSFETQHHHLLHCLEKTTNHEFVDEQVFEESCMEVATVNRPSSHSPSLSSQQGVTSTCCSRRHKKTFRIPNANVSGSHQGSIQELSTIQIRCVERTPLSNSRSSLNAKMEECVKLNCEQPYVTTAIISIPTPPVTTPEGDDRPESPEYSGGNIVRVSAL
Test: TEVC of X. laevis oocytes expressing Kv4.2
Format: cell-based
Description: Kv2.1 mutants were constructed using the QuickChange Multi Site-Directed Mutagenesis Kit (Stratagene, La Jolla, Calif.). Mutant Kv2.1 genes (in the pGA1 oocyte expression vector for oocyte expression) were sequenced in their entirety to confirm appropriate mutations and check for inadvertent mutations, and then subcloned into a wild-type pGA1 backbone. For oocyte expression, Kv3.4 was in pBF1, Kv4.2 was in pRAT. cRNA transcripts were produced from SacII-linearized (Kv2.1), Mlullinearized (Kv3.4) and Not1-linearized (Kv4.2) DNA templates using the T3 (Kv2.1), SP6 (Kv3.4) and T7 (Kv4.2) mMessage mMachine kits (Ambion, Austin, Tex.). cRNA was quantified by spectrophotometry and its size integrity verified by gel electophoresis. Defolliculated stage V and VI Xenopus laevis oocytes (purchased from Nasco, Grand Island, N.Y.) were injected with 5 ng of cRNA encoding Kv2.1, Kv3.4 or Kv4.2. Chinese Hamster Ovary (CHO) cells were transfected with 0.25 μg Kv2.1 cDNA, 2 μg blank plasmid and 2 μg Green fluorescent Protein in pBOB using Supetfect transfection reagent (Qiagen) 24 hours before whole-cell voltage clamp studies.
Whole-cell two-electrode voltage-clamp (TEVC) recordings were performed on X laevis oocytes expressing cloned Kv2.1, Kv3.4 or Kv4.2 using a Warner OC-725C amplifier and pClamp9 (Axon Instruments, Foster City, Calif.) software. Oocytes were bathed in a small-volume Warner oocyte bath and viewed with a Fisher dissection microscope. Bath solution for whole-cell oocyte recordings was (in mM): 96 NaCl, 4 KCl, 0.7 MgCl2, 1 CaCl2, 10 HEPES (pH 7.4); whole-cell oocyte TEVC pipettes were of 0.2-2 M resistance when filled with 3 M KCl. Experiments were performed 24-48 hours after cRNA injection. For assessment of current-voltage relationships in the absence or presence of dabco derivatives, oocytes were held at −80 mV, stepped for 2 seconds at voltages between −80 mV and +60 mV in 20 mV steps (Kv2.1) or between −80 and +50 mV in 10 mV steps (Kv3.4), then held for 500 ms at −40 mV before returning to the holding potential. […]

## c1cc(C[N+]23CCN(CC2)CC3)ccc1C[N+]12CCN(CC1)CC2 [JC638.2α, α,α′-[bis(4-aza-1-azoniabicyclo[2.2.2]octanyl)]p-xylene]
0.5 mM
  block of Kv4.2: 38%

## CCCCCCCCCCCC[N+]12CCN(CC1)CC2 [JE188, 1-aza-4-azonia-4-dodecylbicyclo[2.2.2]octane]
100 μM
  block of Kv4.2: 3%

## C(CCCC[N+]12CCN(CC1)CC2)CCC[N+]12CCN(CC1)CC2 [TG27, 1,8-[bis(4-aza-1-azoniabicyclo[2.2.2]octanyl)]octane]
1 mM
  block of Kv4.2: 3%
